# Laboratory results: patent US7579365B2 (ZIOPHRAM Oncology, Inc., priority 1998, dated 2009)
# Where two headings read alike, the source gives them in different places.
# Legend:
# L1210 = L1210 leukemia model in vivo (% ILS, survival time); parameters: species or system mouse; conditions: for ILS at 46.4 mg/kg: read-out: % ILS L1210
# From the text: In the hollow fiber assay, both compounds were almost equally strongly active, while on L 1210 D-24851 was markedly more strongly active after oral and intraperitoneal administration than D-24241.
# [1] = for Tox. p.o.: p.o. (Table 5)
# SK-OV-3 cell line = experiment: XTT proliferation test/cytotoxicity test, SK-OV-3 cell line; assay type: cell-based; conditions: for EC50: Homo sapiens; for XTT EC50 SK-OV-3: SK-OV-3 tumor cells
# Description: (§1) In this test system, the effect of substances on the proliferation behavior of tumor cell lines is investigated. In the course of this, the cytotoxic potential of these substances is determined. The test method is described in Scudiero et al. 1988, Cancer Res. 48, 4827.
# (§2) The following tumor cell lines were employed in the investigations:
# (§3) The KB cell line an epidermal carcinoma of the oral cavity,
# (§4) the L1210 cell line a lymphatic leukemia of the mouse, the LNCAP cell line a prostate carcinoma and the SK-OV-3 cell line an ovarian carcinoma.
# KB cell line = experiment: XTT proliferation test/cytotoxicity test, KB cell line; assay type: cell-based; conditions: for EC50: Homo sapiens, KB, read-out: XTT EC50 KB
# Description: as §1, §2, §3, §4
# L1210 cell line = experiment: XTT proliferation test/cytotoxicity test, L1210 cell line; assay type: cell-based, mouse; conditions: for EC50: Mus musculus; for XTT EC50 L1210: L1210 tumor cells
# Description: as §1, §2, §3, §4
# LNCAP cell line = experiment: XTT proliferation test/cytotoxicity test, LNCAP cell line; assay type: cell-based; conditions: for EC50: Homo sapiens, read-out: XTT EC50 LNCaP
# Description: as §1, §2, §3, §4
# [2] = SK-OV-3, SK-OV-3 tumor cells, read-out: XTT EC50 SK-OV-3
# [3] = L1210, L1210 tumor cells, read-out: XTT EC50 L1210
# [4] = SK-OV-3, read-out: XTT EC50 SK-OV-3
# [5] = L1210, read-out: XTT EC50 L1210
structure (smiles),measurement,setting,value
"O=P1(NCCCl)OCCCN1CCCl (stereo not drawn) [Ifosfamide, reference compound]",ILS at 316 mg/kg,"L1210; Mus musculus, L1210, ip, 1 × x 316 mg/kg i.p.",89%
same,Tox. i.p.,[1]; i.p. (Table 5),≈732 i.p. mg/kg
"CN(Cc1cnc2nc(N)nc(N)c2n1)c1ccc(C(=O)N[C@@H](CCC(=O)O)C(=O)O)cc1 [Methotrexate, reference compound]",EC50,SK-OV-3 cell line; [2],> 31.6 µg/mL
same,ILS at 53.7 mg/kg,"L1210; Mus musculus, L1210, ip, 1 × 53.7 mg/kg i.p.",39%
same,EC50,KB cell line; KB tumor cells,~0.007 µg/mL
"O=C(Nc1ccc(F)cc1)C(=O)c1cn(Cc2ccccn2)c2ccccc12 [Example 11, N-(4-Fluorophenyl)-[1-(2-pyridylmethyl)indol-3-yl]glyoxylamide]",EC50,SK-OV-3 cell line; [2],4.25 µg/mL
same,EC50,L1210 cell line; [3],1.75 µg/mL
same,EC50,LNCAP cell line; LNCaP tumor cells,17.5 µg/mL
same,EC50,KB cell line; KB tumor cells,4.59 µg/mL
"O=C(Nc1ccncc1)C(=O)c1cn(Cc2ccccc2Cl)c2ccccc12 [Example 14, N-(Pyridin-4-yl)-[1-(2-chlorobenzyl)indol-3-yl]glyoxylamide]",EC50,SK-OV-3 cell line; [2],2.58 µg/mL
same,EC50,L1210 cell line; [3],1.75 µg/mL
same,EC50,LNCAP cell line; LNCaP tumor cells,17.5 µg/mL
same,EC50,KB cell line; KB tumor cells,1.75 µg/mL
"O=C1c2c(O)ccc(O)c2C(=O)c2c(NCCNCCO)ccc(NCCNCCO)c21 [Mitoxantrone, reference compound]",EC50,SK-OV-3 cell line; [2],~0.174 µg/mL
same,ILS at 4.64 mg/kg,"L1210; Mus musculus, L1210, iv, 1 × 4.64 mg/kg i.v.",144%
same,EC50,L1210 cell line; [3],< 0.0003 µg/mL
same,EC50,LNCAP cell line; LNCaP tumor cells,~0.017 µg/mL
same,Tox. i.v.,[1]; i.v. (Table 5),16 i.v. mg/kg
same,EC50,KB cell line; KB tumor cells,~0.174 µg/mL
N.N.O=C([O-])C1(C(=O)[O-])CCC1.[Pt+2] [Carboplatin],% ILS L1210,L1210; 1 × 100 mg/kg i.p.,41% ILS
same,Tox. i.p.,[1]; i.p. (Table 5),≈158.0 mg/kg
same,Tox. p.o.,[1],≈841.0 p.o mg/kg
CCCCCCCCCCCCCCCCOP(=O)([O-])OCC[N+](C)(C)C [Miltefosine],L1210 antitumor action (Table 5),L1210; no dose given,no action
same,Tox. i.p.,[1]; i.p. (Table 5),≈46.4 i.p. mg/kg
same,Tox. p.o.,[1],≈464-1000 mg/kg
"O=C(Nc1ccncc1)C(=O)c1cn(Cc2ccccc2)c2ccccc12 [Example 9, N-(Pyridin-4-yl)-(1-benzylindol-3-yl)glyoxylamide]",EC50,SK-OV-3 cell line; [4],1.75 µg/mL
same,EC50,L1210 cell line; [5],0.09 µg/mL
same,EC50,LNCAP cell line; LNCaP,3.24 µg/mL
same,EC50,KB cell line,0.05 µg/mL
"N.N.[Cl][Pt][Cl] [Cisplatin, reference compound]",% ILS L1210,L1210; 1 × 3.16 mg/kg i.p.,38.9% ILS
same,XTT EC50 L1210,L1210 cell line,L1210 0.30 μg/ml
"O=C(Nc1ccccn1)C(=O)c1cn(Cc2ccc(F)cc2)c2ccccc12 [Example 15, N-(Pyridin-2-yl)-[1-(4-fluorobenzyl)indol-3-yl]glyoxylamide]",EC50,SK-OV-3 cell line; [4],> 31.6 µg/mL
same,EC50,L1210 cell line; [5],3.1 µg/mL
same,EC50,LNCAP cell line; LNCaP,> 31.6 µg/mL
same,EC50,KB cell line,> 31.6 µg/mL
"O=P1(N(CCCl)CCCl)NCCCO1 (stereo not drawn) [Cyclophosphamide, reference compound]",ILS at 46.4 mg/kg,"L1210; Mus musculus, L1210, iv",40%
same,Tox. i.v.,[1]; i.v. (Table 5),≈340.7 i.v. mg/kg
"O=c1[nH]cc(F)c(=O)[nH]1 [5-Fluorouracil, reference compound]",ILS at 147 mg/kg,"L1210; Mus musculus, L1210, ip, 1 × 147 mg/kg i.p.",72%
same,ILS at 68.1 mg/kg,"L1210; Mus musculus, L1210, ip, 4 × 68.1 mg/kg i.p.",83%
"COc1cccc2c1C(=O)c1c(O)c3c(c(O)c1C2=O)C[C@@](O)(C(=O)CO)C[C@@H]3O[C@H]1C[C@H](N)[C@H](O)[C@H](C)O1 [Adriamycin, reference compound]",EC50,SK-OV-3 cell line; [2],0.089 µg/mL
same,ILS at 14.7 mg/kg,"L1210; Mus musculus, L1210, iv, 1 × 14.7 mg/kg i.v.",111%
same,EC50,L1210 cell line; [3],0.174 µg/mL
same,EC50,LNCAP cell line; LNCaP tumor cells,0.17 µg/mL
same,Tox. i.v.,[1]; i.v. (Table 5),≈27.0 i.v. mg/kg
same,EC50,KB cell line; KB tumor cells,0.15 µg/mL
"O=C(Nc1ccncc1)C(=O)c1cn(Cc2cccnc2)c2ccccc12 [Example 10, N-(Pyridin-4-yl)-[1-(3-pyridylmethyl)indol-3-yl]glyoxylamide]",EC50,SK-OV-3 cell line; [2],7.22 µg/mL
same,EC50,L1210 cell line; [3],1.75 µg/mL
same,EC50,LNCAP cell line; LNCaP tumor cells,> 31.6 µg/mL
same,EC50,KB cell line; KB tumor cells,4.06 µg/mL
"CC[C@]1(O)C[C@H]2CN(CCc3c([nH]c4ccccc34)[C@@](C(=O)OC)(c3cc4c(cc3OC)N(C=O)[C@H]3[C@@](O)(C(=O)OC)[C@H](OC(C)=O)[C@]5(CC)C=CCN6CC[C@]43[C@@H]65)C2)C1 [Vincristine, reference compound]",EC50,SK-OV-3 cell line; [2],0.003 µg/mL
same,ILS at 1 mg/kg,"L1210; Mus musculus, L1210, ip, 1 × 1.0 mg/kg i.p.",29%
same,EC50,L1210 cell line; [3],0.004 µg/mL
same,EC50,"LNCAP cell line; LNCaP, LNCaP tumor cells",0.004 µg/mL
same,Tox. i.v.,[1]; i.v. (Table 5),≈3.0 i.v. mg/kg
same,EC50,KB cell line; KB tumor cells,< 0.001 µg/mL
"O=C(Nc1ccncc1)C(=O)c1cn(Cc2ccccn2)c2ccccc12 [Example 16, N-(Pyridin-4-yl)-[1-(2-pyridylmethyl)indol-3-yl]glyoxylamide]",EC50,SK-OV-3 cell line; [2],4.25 µg/mL
same,EC50,L1210 cell line; [3],1.75 µg/mL
same,EC50,LNCAP cell line; LNCaP tumor cells,17.5 µg/mL
same,EC50,KB cell line; KB tumor cells,4.59 µg/mL
"O=C(Nc1cccnc1)C(=O)c1cn(Cc2ccc(F)cc2)c2ccccc12 [Example 3, N-(Pyridin-3-yl)-[1-(4-fluorobenzyl)indol-3-yl]glyoxylamide]",EC50,SK-OV-3 cell line; [2],1.75 µg/mL
same,EC50,L1210 cell line; [3],1.75 µg/mL
same,EC50,LNCAP cell line; LNCaP tumor cells,9.25 µg/mL
same,EC50,KB cell line; KB tumor cells,1.75 µg/mL
"C/C=C/[C@@H]1O[C@H]([C@H](O)/C=C/C=C(\C)C[C@@H](C)/C=C(C)\C=C\[C@H]2CC=CC(=O)O2)C[C@@H](O)[C@@H]1C [Ratjadone, reference compound]",XTT EC50 SK-OV-3,SK-OV-3 cell line,SKOV3 < 0.003 μg/ml
same,% ILS L1210,L1210; 1 × 1.47 mg/kg i.p.,22% ILS
same,XTT EC50 L1210,L1210 cell line,L1210 < 0.003 μg/ml
same,XTT EC50 LNCaP,LNCAP cell line; LNCaP tumor cells,LNCAP < 0.003 μg/ml
same,Tox. i.p.,[1]; i.p. (Table 5),~16.0 mg/kg
same,Tox. i.v.,[1]; i.v. (Table 5),~30.0 i.v. mg/kg
same,XTT EC50 KB,KB cell line; KB tumor cells,KB < 0.003 μg/ml
"O=C(Nc1cccnc1)C(=O)c1cn(Cc2ccccc2)c2ccccc12 [Example 4, N-(Pyridin-3-yl)-(1-benzylindol-3-yl)glyoxylamide]",EC50,SK-OV-3 cell line; [4],9.2 µg/mL
same,EC50,L1210 cell line; [5],1.75 µg/mL
same,EC50,LNCAP cell line; LNCaP,> 31.6 µg/mL
same,EC50,KB cell line,17.5 µg/mL
COc1cc([C@@H]2c3cc4c(cc3[C@@H](O[C@@H]3O[C@@H]5CO[C@@H](C)O[C@H]5[C@H](O)[C@H]3O)[C@H]3COC(=O)[C@H]23)OCO4)cc(OC)c1O [Etoposide],ILS at 46.4 mg/kg,"L1210; Mus musculus, L1210, ip, 1 × 46.4 mg/kg i.p.",56%
same,Tox. i.p.,"[1]; in vivo, ip",≈158.0 i.p. mg/kg
same,Tox. i.v.,"[1]; in vivo, iv",>68.1 i.v. mg/kg
"O=C(Nc1ccc(F)cc1)C(=O)c1cn(Cc2cccnc2)c2ccccc12 [Example 12, N-(4-Fluorophenyl)-[1(3-pyridylmethyl)indol-3-yl]glyoxylamide]",EC50,SK-OV-3 cell line; [2],> 31.6 µg/mL
same,EC50,L1210 cell line; [3],0.017 µg/mL
same,EC50,LNCAP cell line; LNCaP tumor cells,> 31.6 µg/mL
same,EC50,KB cell line; KB tumor cells,> 31.6 µg/mL
"O=C(Nc1ccc(F)cc1)C(=O)c1cn(Cc2ccc(F)cc2)c2ccccc12 [Example 6, N-(4-Fluorophenyl)-[1-(4-fluorobenzyl)indol-3-yl]glyoxylamide]",EC50,SK-OV-3 cell line; [2],17.5 µg/mL
same,EC50,L1210 cell line; [3],1.75 µg/mL
same,EC50,LNCAP cell line; LNCaP tumor cells,> 31.6 µg/mL
same,EC50,KB cell line; KB tumor cells,3.1 µg/mL
"C[C@@H]1[O][Pt]2([NH]CC3CCC3C[NH]2)[O]C1=O (stereo partly drawn) [Lobaplatin, reference compound]",% ILS L1210,L1210; 1 × 14.7 mg/kg ip,55.0% ILS
same,Tox. i.p.,"[1]; in vivo, ip",≈34.0 i.p. mg/kg
"C/C(=C\c1csc(C)n1)[C@@H]1C[C@@H]2O[C@]2(C)CCC[C@H](C)[C@H](O)[C@@H](C)C(=O)C(C)(C)[C@@H](O)CC(=O)O1 [Epothilone B, reference compound]",XTT EC50 SK-OV-3,SK-OV-3 cell line,SKOV3 ~ 0.0031 μg/ml
same,% ILS L1210,L1210; 1 × 10 mg/kg i.p.,44% ILS
same,XTT EC50 L1210,L1210 cell line,L1210 ~ 0.0017 μg/ml
same,XTT EC50 LNCaP,LNCAP cell line; LNCaP tumor cells,LNCAR ~ 0.014 μg/ml
same,Tox. i.p.,[1]; i.p. (Table 5),≈100.0 i.p. mg/kg
same,XTT EC50 KB,KB cell line; KB tumor cells,KB ~ 0.0002 μg/ml
